According to the supplement of paper PMC10307832:

How the values were obtained:
Assay in all cases: relative viability (nuclei count vs DMSO), 5 days (fraction); higher = more cells survive
[1] = compound: COc1cc(Nc2c(C#N)cnc3cc(OCCCN4CCN(C)CC4)c(OC)cc23)c(Cl)cc1Cl [Bosutinib]
Outline: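 Lung cancer cell lines received five library-drug doses (not always all listed) spaced by √10, pinned on vehicle-anchored 1536-well plates after an overnight stay at 37 °C. Five days later, with no medium change, nuclei were Hoechst-stained, imaged at 4× and counted with MetaXpress. Viability is treated-well nuclei relative to vehicle-well nuclei, as a median across plates. Passing plates had control CV below 25% and at least one doubling.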

[2] = compound: COc1cc(Nc2c(C#N)cnc3cc(OCCCN4CCN(C)CC4)c(OC)cc23)c(Cl)cc1Cl [Bosutinib] + CC1(C)CCC(c2ccc(Cl)cc2)=C(CN2CCN(c3ccc(C(=O)NS(=O)(=O)c4ccc(N[C@H](CCN5CCOCC5)CSc5ccccc5)c(S(=O)(=O)C(F)(F)F)c4)cc3)CC2)C1 [Navitoclax] (partner 0.5 µM)
Outline: (§1)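 Cells from lung cancer lines were seeded into 1536-well plates and, one day later, dosed by pin tool. Treatments were either a single drug or a fixed dose of an anchor drug with five library-drug doses (not always all listed) in √10 steps. After 5 days, nuclei were stained in a one-step fixation (final 0.05% Triton X-100, 1% formaldehyde, 1 ug/ml Hoechst) and counted on 4× images, and relative viability is the treated-to-vehicle nuclei ratio, as the median of duplicate plates.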

[3] = compound: COc1cc(Nc2c(C#N)cnc3cc(OCCCN4CCN(C)CC4)c(OC)cc23)c(Cl)cc1Cl [Bosutinib] + COc1cccc2cc(-c3nc([C@H]4CC[C@H](C(=O)O)CC4)n4ncnc(N)c34)[nH]c12 [OSI-027] (partner 0.5 µM)
Outline: as §1

[4] = compound: COc1cc(Nc2c(C#N)cnc3cc(OCCCN4CCN(C)CC4)c(OC)cc23)c(Cl)cc1Cl [Bosutinib] + CS(=O)(=O)N1CCN(Cc2cc3nc(-c4cccc5[nH]ncc45)nc(N4CCOCC4)c3s2)CC1 [Pictilisib] (partner 1 µM)
Outline: as §1

[5] = compound: COc1cc(Nc2c(C#N)cnc3cc(OCCCN4CCN(C)CC4)c(OC)cc23)c(Cl)cc1Cl [Bosutinib] + Nc1ncn([C@H]2C[C@H](O)[C@@H](CO)O2)c(=O)n1 [Decitabine] (partner 2 µM)
Outline: as §1

Cell Line | relative viability ([1]; 0.01 µM) | relative viability ([1]; 0.03162 µM) | relative viability ([1]; 0.1 µM) | relative viability ([1]; 1 µM) | relative viability ([2]; first compound 0.01 µM) | relative viability ([2]; first compound 0.03162 µM) | relative viability ([2]; first compound 0.1 µM) | relative viability ([2]; first compound 1 µM) | relative viability ([3]; first compound 0.01 µM) | relative viability ([3]; first compound 0.03162 µM) | relative viability ([3]; first compound 0.1 µM) | relative viability ([3]; first compound 1 µM) | relative viability ([4]; first compound 0.01 µM) | relative viability ([4]; first compound 0.03162 µM) | relative viability ([4]; first compound 0.1 µM) | relative viability ([4]; first compound 1 µM) | relative viability ([5]; first compound 0.01 µM) | relative viability ([5]; first compound 0.03162 µM) | relative viability ([5]; first compound 0.1 µM) | relative viability ([5]; first compound 1 µM)
PC-3 [JPC-3] | 1.04 | 1.07 | 1.06 | 0.745 | 0.856 | 0.797 | 0.807 | 0.768 | 0.812 | 0.685 | 0.745 | 0.54 | 0.756 | 0.726 | 0.73 | 0.59 | 0.883 | 0.798 | 0.826 | 0.596
PC-14 | 1.03 | 0.977 | 0.871 | 0.336 | 0.967 | 0.975 | 1.02 | 0.474 | 0.961 | 0.688 | 0.773 | 0.192 | 0.61 | 0.588 | 0.449 | 0.125 | 0.248 | 0.226 | 0.224 | 0.174
RERF-LC-KJ | 0.997 | 0.971 | 0.978 | 0.948 | 0.845 | 1.08 | 0.893 | 0.743 | 0.594 | 0.59 | 0.607 | 0.473 | 0.544 | 0.581 | 0.576 | 0.459 | 0.643 | 0.656 | 0.645 | 0.737
SK-LU-1 | 0.995 | 1.06 | 1.05 | 0.629 | 0.714 | 0.929 | 0.779 | 0.739 | 0.335 | 0.362 | 0.331 | 0.222 | 0.574 | 0.685 | 0.517 | 0.545 | 0.646 | 0.644 | 0.637 | 0.548
SK-MES-1 | 1.02 | 1.01 | 1.01 | 0.815 | 1.21 | 0.97 | 1.1 | 1.3 | 0.64 | 0.681 | 0.671 | 0.38 | 0.374 | 0.351 | 0.437 | 0.305 | 0.412 | 0.482 | 0.428 | 0.314
SW 1573 | 1.05 | 1.02 | 0.941 | 0.924 | 0.996 | 0.998 | 0.979 | 0.919 | 0.695 | 0.67 | 0.656 | 0.612 | 0.508 | 0.516 | 0.492 | 0.432 | 0.606 | 0.48 | 0.557 | 0.451
UMC-11 | 1 | 1.01 | 0.956 | 0.912 | 0.256 | 0.316 | 0.333 | 0.33 | 0.48 | 0.478 | 0.423 | 0.402 | 0.889 | 0.81 | 0.875 | 0.764 | 0.661 | 0.555 | 0.596 | 0.535
